≈ marks a conversion by molar mass, not a printed value.
Columns and labels:
[1] = MTT assay for cytotoxic activity; type: cell-based; conditions: African green monkey, Vero cells (normal kidney epithelial cell line), read-out: IC50 (Mean ± SEM), cytotoxic activity
Excerpt: (§1) The results are expressed as IC50 values (µM) and are depicted in Table 3.

[2] = tested on: human breast cancer (MCF-7) cells; test: MTT assay for cytotoxic activity; type: cell-based; conditions: Homo sapiens, MCF7, MCF-7 cells, read-out: IC50 (Mean ± SEM), cytotoxic activity
Excerpt: as §1

[3] = tested on: Bacillus subtilis ATCC 6633; test: Agar well diffusion, inhibition zone; type: cell-based; set-up: dose or concentration left out as unconfirmed; conditions: ATCC6633, B. subtilis ATCC 6633, NA = No Activity, read-out: Mean Diameter of Inhibition Zone (Mean ± SEM)
Excerpt: (§2) The antimicrobial activity of all synthesized compounds 2–13 was screened against a panel of two Gram-positive bacteria (Staphylococcus aureus ATCC 29213 and Bacillus subtilis ATCC 6633), two Gram-negative bacteria (Escherichia coli ATCC 25922, Pseudomonas aeruginosa ATCC 27853) and two fungi (Candida albicans ATCC 10231 and Aspergillus flavus ATCC 46283) using the agar well diffusion method. Ciprofloxacin and clotrimazole were used as antibacterial and antifungal standards, respectively. The results of this study were recorded as the average diameter of the inhibition zones (IZ) in Table 1. […] Additionally, the promising activity against S. aureus was observed from compounds 9, 12 and 13, however against B. subtilis from compounds 12 and 13.
(§3) The antimicrobial assay was performed in vitro for the target compounds 2–13 against Staphylococcus aureus ATCC 29213, Bacillus subtilis ATCC 6633 as Gram-positive bacteria, Escherichia coli ATCC 25922, Pseudomonas aeruginosa ATCC 27853 as Gram-negative bacteria and Candida albicans ATCC 10231, Aspergillus flavus ATCC 46283 as fungi. At the first, 100 μL of the test bacteria/fungi were grown in 10 mL of fresh media until they reached a count of approximately 10^8 cells/ml for bacteria or 10^5 cells/mL for fungi. […] The plates were incubated for 24 h at 37 °C (for bacteria and yeast) and for 72 h at 27 °C (for filamentous fungi), each test was repeated three times. After incubation, the microorganism’s growth was observed. Ciprofloxacin and clotrimazole were used as standard antibacterial and antifungal drugs, respectively. The resulting inhibition zone diameters were measured in millimeters using the diffusion technique. […] The different concentrations (triplicate) of each compound were tested and compared with standard drugs.

[4] = tested on: Staphylococcus aureus ATCC 29213; test: Agar well diffusion, inhibition zone; type: cell-based; set-up: dose or concentration left out as unconfirmed; conditions: ATCC29213, S. aureus ATCC 29213, NA = No Activity, read-out: Mean Diameter of Inhibition Zone (Mean ± SEM)
Excerpt: as §2, §3

[5] = target: T1, dihydrofolate reductase (DHFR) (Homo sapiens, UniProt P00374); test: Dihydrofolate reductase inhibitor screening kit (colorimetric, BioVision); type: biochemical; conditions: read-out: IC50 (mean ± SEM)
T1 construct: purchased Bio Vision
T1 sequence (P00374 1-187): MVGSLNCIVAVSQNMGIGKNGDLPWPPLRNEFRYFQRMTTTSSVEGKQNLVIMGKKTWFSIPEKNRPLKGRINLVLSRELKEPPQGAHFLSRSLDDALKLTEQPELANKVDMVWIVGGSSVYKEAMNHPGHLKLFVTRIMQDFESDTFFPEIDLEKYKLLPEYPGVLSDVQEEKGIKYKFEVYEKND
Procedure: (§4) This test was performed at the Confirmatory Diagnostic Unit, VACSERA, Egypt.
(§5) The screening performed against E. coli DNA gyrase B, E. coli Topoisomerase IV and dihydrofolate reductase enzymes.

E. coli DNA gyrase B = target: T2, E. coli DNA gyrase B (Escherichia coli, UniProt P0AES6); test: In vitro enzyme inhibition, DNA gyrase microplate assay kit (Inspiralis); type: biochemical
T2 construct: purchased Inspiralis
Procedure: as §4, §5

[6] = tested on: Bacillus subtilis ATCC 6633; test: MIC, modified agar well diffusion method; type: cell-based; conditions: ATCC6633, B. subtilis ATCC 6633, read-out: MIC (Mean ± SEM)
Excerpt: as §2
(§6) The antimicrobial assay was performed in vitro for the target compounds 2–13 against Staphylococcus aureus ATCC 29213, Bacillus subtilis ATCC 6633 as Gram-positive bacteria, Escherichia coli ATCC 25922, Pseudomonas aeruginosa ATCC 27853 as Gram-negative bacteria and Candida albicans ATCC 10231, Aspergillus flavus ATCC 46283 as fungi. At the first, 100 μL of the test bacteria/fungi were grown in 10 mL of fresh media until they reached a count of approximately 10^8 cells/ml for bacteria or 10^5 cells/mL for fungi. […] of each sample (at 0.5 mg/mL) was added to each well (10 mm diameter holes cut in the agar gel). The plates were incubated for 24 h at 37 °C (for bacteria and yeast) and for 72 h at 27 °C (for filamentous fungi), each test was repeated three times. After incubation, the microorganism’s growth was observed. Ciprofloxacin and clotrimazole were used as standard antibacterial and antifungal drugs, respectively. The resulting inhibition zone diameters were measured in millimeters using the diffusion technique. […] The different concentrations (triplicate) of each compound were tested and compared with standard drugs.

[7] = tested on: Staphylococcus aureus ATCC 29213; test: MIC, modified agar well diffusion method; type: cell-based; conditions: ATCC29213, S. aureus ATCC 29213, read-out: MIC (Mean ± SEM)
Excerpt: as §2, §6

[8] = tested on: Candida albicans ATCC 10231; test: MIC, modified agar well diffusion method; type: cell-based; conditions: ATCC10231, C. albicans ATCC 10231, read-out: MIC (Mean ± SEM)
Excerpt: as §2, §6

[9] = tested on: Escherichia coli ATCC 25922; test: MIC, modified agar well diffusion method; type: cell-based; conditions: ATCC25922, E. coli ATCC 25922, read-out: MIC (Mean ± SEM)
Excerpt: as §2, §6

[10] = tested on: Aspergillus flavus ATCC 46283; test: MIC, modified agar well diffusion method; type: cell-based; conditions: ATCC46283, A. flavus ATCC 46283, read-out: MIC (Mean ± SEM)
Excerpt: as §2, §6

[11] = tested on: Pseudomonas aeruginosa ATCC 27853; test: MIC, modified agar well diffusion method; type: cell-based; conditions: ATCC27853, P. aeruginosa ATCC 27853, read-out: MIC (Mean ± SEM)
Excerpt: as §2, §6

E. coli Topoisomerase IV = target: T3, E. coli Topoisomerase IV (Escherichia coli, UniProt P20083); test: In vitro enzyme inhibition, topoisomerase IV decatenation kit (Inspiralis); type: biochemical
T3 construct: purchased Inspiralis
T3 sequence (P0AFI2 whole entry): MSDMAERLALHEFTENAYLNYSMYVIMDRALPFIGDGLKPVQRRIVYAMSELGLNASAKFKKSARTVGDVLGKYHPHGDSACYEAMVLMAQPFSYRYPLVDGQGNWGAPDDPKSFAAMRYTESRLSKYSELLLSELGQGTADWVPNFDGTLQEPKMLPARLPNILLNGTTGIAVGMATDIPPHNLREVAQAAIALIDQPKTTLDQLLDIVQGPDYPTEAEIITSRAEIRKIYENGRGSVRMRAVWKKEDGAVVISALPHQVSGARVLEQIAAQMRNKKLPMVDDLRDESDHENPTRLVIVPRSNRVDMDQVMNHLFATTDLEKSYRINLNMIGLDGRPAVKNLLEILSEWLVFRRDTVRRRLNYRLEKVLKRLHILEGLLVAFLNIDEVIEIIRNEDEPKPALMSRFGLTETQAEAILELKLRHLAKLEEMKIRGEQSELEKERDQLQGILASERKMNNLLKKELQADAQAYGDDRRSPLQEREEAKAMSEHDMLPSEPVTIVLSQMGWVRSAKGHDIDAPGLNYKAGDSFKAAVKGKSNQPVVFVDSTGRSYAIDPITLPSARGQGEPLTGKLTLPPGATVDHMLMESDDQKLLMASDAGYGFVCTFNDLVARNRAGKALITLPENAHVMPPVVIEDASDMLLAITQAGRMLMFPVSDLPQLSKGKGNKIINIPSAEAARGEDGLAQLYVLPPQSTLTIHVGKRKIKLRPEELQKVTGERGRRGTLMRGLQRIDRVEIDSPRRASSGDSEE
T3 sequence (P20083 whole entry): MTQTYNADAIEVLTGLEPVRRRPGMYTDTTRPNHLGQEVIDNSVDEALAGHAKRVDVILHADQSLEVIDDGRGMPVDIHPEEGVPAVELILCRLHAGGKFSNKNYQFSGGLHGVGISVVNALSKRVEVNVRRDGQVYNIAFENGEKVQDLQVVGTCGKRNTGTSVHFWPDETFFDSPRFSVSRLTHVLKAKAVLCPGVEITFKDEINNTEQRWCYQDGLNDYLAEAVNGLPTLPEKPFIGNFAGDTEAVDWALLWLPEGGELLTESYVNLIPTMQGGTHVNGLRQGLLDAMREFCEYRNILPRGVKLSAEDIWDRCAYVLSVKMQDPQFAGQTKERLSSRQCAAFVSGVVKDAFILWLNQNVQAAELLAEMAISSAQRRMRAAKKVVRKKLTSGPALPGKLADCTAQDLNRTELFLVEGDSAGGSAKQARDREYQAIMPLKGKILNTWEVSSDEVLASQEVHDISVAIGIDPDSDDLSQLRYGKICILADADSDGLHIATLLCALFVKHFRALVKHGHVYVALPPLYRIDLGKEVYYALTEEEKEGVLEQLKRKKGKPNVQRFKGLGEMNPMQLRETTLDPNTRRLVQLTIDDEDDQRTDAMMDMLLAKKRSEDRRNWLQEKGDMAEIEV
Procedure: as §4, §5

[12] = tested on: Candida albicans ATCC 10231; test: Agar well diffusion, inhibition zone; type: cell-based; set-up: dose or concentration left out as unconfirmed; conditions: ATCC10231, C. albicans ATCC 10231, NA = No Activity, read-out: Mean Diameter of Inhibition Zone (Mean ± SEM)
Excerpt: as §2, §6

[13] = tested on: Escherichia coli ATCC 25922; test: Agar well diffusion, inhibition zone; type: cell-based; set-up: dose or concentration left out as unconfirmed; conditions: ATCC25922, E. coli ATCC 25922, NA = No Activity, read-out: Mean Diameter of Inhibition Zone (Mean ± SEM)
Excerpt: as §2, §6

[14] = tested on: Aspergillus flavus ATCC 46283; test: Agar well diffusion, inhibition zone; type: cell-based; set-up: dose or concentration left out as unconfirmed; conditions: ATCC46283, A. flavus ATCC 46283, NA = No Activity, read-out: Mean Diameter of Inhibition Zone (Mean ± SEM)
Excerpt: as §2, §6

[15] = tested on: Pseudomonas aeruginosa ATCC 27853; test: Agar well diffusion, inhibition zone; type: cell-based; set-up: dose or concentration left out as unconfirmed; conditions: ATCC27853, P. aeruginosa ATCC 27853, NA = No Activity, read-out: Mean Diameter of Inhibition Zone (Mean ± SEM)
Excerpt: as §2, §6

Structure (SMILES): N#CCC(=O)NNC(=S)NC(=O)Cc1ccccc1 [Compound 8, 1-(2-Cyanoacetyl)-4-phenylacetylthiosemicarbazide]
- IC50 [1]: 144.7 ± 0.36 µM
- IC50 [2]: 22.4 ± 0.36 µM
- zone of inhibition [3]: 42 ± 0.3 mm
- zone of inhibition [4]: 39 ± 1.21 mm
- IC50 [5]: 189.5 ± 1.06 µM
- IC50 (E. coli DNA gyrase B): 0.33 µM
- MIC [6]: 1.38 ± 0.25 µg/mL (≈ 4.99 µM)
- MIC [7]: 3.25 ± 1 µg/mL (≈ 11.8 µM)
- MIC [8]: 39.8 ± 0.2 µg/mL (≈ 144 µM)
- MIC [9]: 0.95 ± 0.22 µg/mL (≈ 3.44 µM)
- MIC [10]: 2.11 ± 0.51 µg/mL (≈ 7.64 µM)
- MIC [11]: 1.25 ± 0.5 µg/mL (≈ 4.52 µM)
- IC50 (E. coli Topoisomerase IV): 19.7 ± 1 µM
- zone of inhibition [12]: 18 ± 0.05 mm
- zone of inhibition [13]: 27 ± 0.62 mm
- zone of inhibition [14]: 27 ± 0.21 mm
- zone of inhibition [15]: 36 ± 0.12 mm

From PMC7356696, “Synthesis, Antimicrobial Activity and Molecular Docking of Novel Thiourea Derivatives Tagged with Thiadiazole, Imidazole and Triazine Moieties as Potential DNA Gyrase and Topoisomerase IV Inhibitors” (Molecules, 2020)
